Several values for one entry are separate records, joined by “and”; a condition that tells them apart may be missing. Equal values may be shown once. Where a name gives a salt, the structure may show the parent alone.
Assays:
γ globin gene = γ globin gene induction by relative quantitative RT-PCR; format: cell-based, human
Method: (§1) After 3 days of drug-treatment, the total RNA was extracted by RNA Spin mini kit (Ge-Healthcare) and reverse-transcription was performed by using superscript II (Invitrogen) followed the manufactors instruction. Quantitative PCR was performed on LightCycler with using STBR green master mix followed the manufactors instruction (Roche). The absolute quantitative RT-PCR was calculated by the standard curve with supplying a known copy number of plasmids. The relative quantitative RT-PCR was normalized to the expression levels of the β-actin and compared to the mock control.
To search for new agents, which are capable of inducing the expression of γ globin, a series of naphthalimide derivatives with various substituent(s) on the naphthalene ring and the heterocyclic N-atom (A1-A14, B1-B4, C1-C5, D1, and E1-E3, FIG. 2) were synthesized. These derivatives were subjected to evaluating the γ globin induction abilities in differentiated peripheral blood mononuclear cells (PBMCs). The PBMCs isolated from the peripheral blood of donors were expanded and differentiated for a total of 14 days in a two-phase liquid culture. The resulted primary erythoid cells were then treated with different dosages of naphthalimide derivatives individually for another 3 days. The expression levels of the endogenous γ globin gene were estimated by relative quantitative RT-PCR and the proliferation rates of these cells were examined by AlamarBlue cell viability assay. […]; 2-4.5-folds induction of the γ globin gene expression in the compounds-treated cells (FIG. 3).

[1] = stability observed during biological evaluation; format: physicochemical; conditions: deaminated or converted into C6-hydroxy derivative
Description: To optimize the biological activity and reduce the cytotoxicity of SS-2394 by structural modification, the core structure of naphthalimide (I) was modified by alternating the carbonyl function of benzo[de]isoquinoline-1,3(2H)-dione; reducing the carbonyl function to hydroxyl derivatives (II), which can be further converted into dehydroxylated derivatives III and IV (Scheme 1). During biological evaluation of SS-2394, it was observed that the C6-amino function in SS-2394 was unstable and can be deaminated or converted into the corresponding C6-hydroxy derivatives. Therefore, various substituent R to the C6 of benzo[de]isoquinolin ring were introduced. The substituent R can be H, NH2, NHCOCH3, NHR′, NR′2; wherein R′ can be a C1 to C5 alkyl group. The new compounds bear a N,N-dimethylaminoethyl hydrophilic side chain, which can form acid salts with various inorganic acids or organic acids. Thus, the compounds are water soluble compounds and are suitable for biological application.

[2] = solubility in DMSO and H2O; format: physicochemical; conditions: for water-solubility (in words): comparison
β globin = test: absolute quantitative RT-PCR, proportion of β globin mRNA; format: cell-based; conditions: primary human erythroid cells, at IC50, 3 days; mock 88.8%; listed as SS-2394, hydrochloride
Method: as §1
(§2) To evaluate the specificity of S51021, SS-2394, HU, and NaB in mediating globin genes activation, the amounts of individual P3-liked globin mRNAs were measured by absolute quantitative RT-PCR.
(§3) The primary human erythroid cells were treated with HU (145.9 μM), NaB (221.6 μM), S51021 (21.8 μM) or SS2394 (2.3 μM) for 3 days, and the expression levels of each globin mRNA were estimated by absolute quantitative RT-PCR analysis. The proportions of individual 3-like globin chains among the total 3-like globin mRNA are shown. Data are presented as the mean±SEM, N=3.

δ globin = test: absolute quantitative RT-PCR, proportion of δ globin mRNA; format: cell-based; conditions: primary human erythroid cells, at IC50, 3 days; mock 3.3%
Method: as §1, §2, §3

ε globin = test: absolute quantitative RT-PCR, proportion of ε globin mRNA; format: cell-based; conditions: primary human erythroid cells, at IC50, 3 days; mock 0.0%
Method: as §1, §2, §3

[3] = tested on: primary human erythroid cells; test: AlamarBlue cell viability / proliferation assay; conditions: Table 1a; concentration reducing proliferation rate of primary human erythroid cells by 50%, 3 days

γ globin induction (IC50) (γ globin gene; Table 3, γ globin mRNA induction fold at the compound's IC50, 3 days, hydrochloride): 4.0 fold | EC (μM) induction of HU IC50 (2.3 fold) (γ globin gene; concentration inducing γ globin gene expression 2.3-fold, primary human erythroid cells): 0.8 µM | stability of the C6-amino function [1]: unstable | water-solubility (in words) ([2]; hydrochloride): greatly improved water-solubility | solubility ([2]; water, H2O, read-out: solubility H2O): > 100 mM
Compound: CN(C)CCN1C(=O)c2cccc3c(N)ccc(c23)C1=O [Compound E2, N-(2-dimethylamino-ethyl)-4-amino-1,8-naphthalimide hydrochloride]
water-solubility (in words) ([2]; listed as SS-2394, hydrochloride): higher water-solubility than that of the parental compound S51021 | β globin proportion of total β-like globin mRNA (β globin): 82.3% and 82.3 ± 1.1% | δ globin proportion of total β-like globin mRNA (δ globin): 5.5 ± 0.4% | ε globin proportion of total β-like globin mRNA (ε globin): 0.5 ± 0.1% | IC50 [3]: 2300 nM

Reference: patent publication US20170290820A1, “METHODS AND COMPOSITIONS FOR TREATING BETA-THALASSEMIA AND SICKLE CELL DISEASE” (Academia Sinica, priority 2013, published 2017)
